The values that follow come from patent publication US5880258A (dated 1999).

This test deals with thrombin (Homo sapiens, UniProt P00734). Put plainly: anti-thrombin activity; clotting assay (coagulation time with fibrinogen as substrate). Type of test: biochemical. Further details: 100 μl of human-thrombin prepared at 10 NIH units/ml in aforesaid buffer. The following applies: for IC50: concentration corresponding to 50 thrombin units, human-thrombin 10 NIH units/ml, human-fibrinogen 6 mg/ml, read-out: 50% Inhibition Concentration (converted); for Potency: calculated using the definition that HV-1 (54-65) potency is 1. The protocol: Measurement of anti-thrombin activity was done by looking at anti-coagulant activity as an index using fibrinogen as the substrate. That is, the compounds were dossolved in 200 μl of 0.1 mM Tris-HCl buffer (pH7.5) containing 0.1% polyethyleneglycol-6000, 100 μl of human-thrombin prepared at 10 NIH units/ml in aforesaid buffer, were added 200 μl of human-fibrinogen (Sigma) prepared at 6 mg/ml in aforesaid tris-hydrochloride buffer were added, and the coagulation time of the reaction mixtures were measured. For measuring of coagulation times, coagulation time analyzer (Amelung KC10A) was used. Obtained values were converted into units by using a previously prepared thrombin standard curve. Graphs were prepared by plotting the converted values on the vertical axis, and the concentrations of the compounds on the horizontal axis. In the graphs, the thrombin unit was defined as 100 at a compound concentration of 0. The concentration of compounds corresponding to 50 units were defined as 50% inhibitory concentrations of compounds.

*1 amine or outer side, *2 acyl side, *3 side chain or, on linkers, in order; H or OH if unused. Where a SMILES comes first, the peptide text is derived from it. [ ]: non-standard residue; d: D form. The star is where a group is joined. sY = N[C@@H](Cc1ccc(OS(=O)(=O)O)cc1)C(=O)O; X2 = CC(C)C[C@H](N*)C(=O)NP(=O)(O)O; Asu = N[C@@H](CCCCCC(=O)O)C(=O)O; dAsu = N[C@H](CCCCCC(=O)O)C(=O)O; NH(3-hydroxypropyl) = OCCCN*; Suc = O=C(CCC(=O)[*:2])[*:1]; Leu(ol) = CC(C)C[C@H](N)CO; X1 = NS(=O)(=O)CCN*; Ava = NCCCCC(=O)O; βAla = NCCC(=O)O

With `CC[C@H](C)[C@H](NC(=O)[C@H](CCC(=O)O)NC(=O)[C@H](CCC(=O)O)NC(=O)[C@H](Cc1ccccc1)NC(=O)[C@H](CC(=O)O)NC(=O)CN)C(=O)N1CCC[C@H]1C(=O)N[C@@H](Cc1ccc(O)cc1)C(=O)N[C@@H](Cc1ccc(OS(=O)(=O)O)cc1)C(=O)N[C@@H](Cc1ccc(OS(=O)(=O)O)cc1)C(=O)N[C@@H](CC(C)C)C(=O)N[C@@H](CCC(N)=O)C(=O)O` (single isomer, unassigned) [Sulfated form of (B) peak 1, Gly--Asp--Phe--Glu--Glu--Ile--Pro--Tyr--Tyr(SO3 H)--Tyr(SO3 H)--Leu--Gln], the IC50 was 0.291 µM.

Consider `CC[C@H](C)[C@H](NC(=O)[C@H](CCC(=O)O)NC(=O)[C@H](CCC(=O)O)NC(=O)[C@H](Cc1ccccc1)NC(=O)[C@H](CC(=O)O)NC(=O)CN)C(=O)N1CCC[C@H]1C(=O)N[C@@H](Cc1ccc(O)cc1)C(=O)N[C@@H](Cc1ccc(OS(=O)(=O)O)cc1)C(=O)N[C@@H](Cc1ccc(O)cc1)C(=O)N[C@@H](CC(C)C)C(=O)N[C@@H](CCC(N)=O)C(=O)O` (single isomer, unassigned) [Sulfated form of (B) peak 2, Gly--Asp--Phe--Glu--Glu--Ile--Pro--Tyr--Tyr(SO3 H)--Tyr--Leu--Gln], for which the IC50 is 0.63 µM.

On to `CC[C@H](C)[C@H](NC(=O)[C@H](CCC(=O)O)NC(=O)[C@H](CCC(=O)O)NC(=O)[C@H](Cc1ccccc1)NC(=O)[C@H](CC(=O)O)NC(=O)CN)C(=O)N1CCC[C@H]1C(=O)N[C@@H](Cc1ccc(O)cc1)C(=O)N[C@@H](Cc1ccc(O)cc1)C(=O)N[C@@H](Cc1ccc(OS(=O)(=O)O)cc1)C(=O)N[C@@H](CC(C)C)C(=O)N[C@@H](CCC(N)=O)C(=O)O` (single isomer, unassigned) [Sulfated form of (B) peak 3, Gly--Asp--Phe--Glu--Glu--Ile--Pro--Tyr--Tyr--Tyr(SO3 H)--Leu--Gln], for which the IC50 was 2.49 µM.

In the case of `CC[C@H](C)[C@H](NC(=O)[C@@H]1CCCN1C(=O)[C@H](CCC(=O)O)NC(=O)[C@H](Cc1ccccc1)NC(=O)[C@H](CC(=O)O)NC(=O)CNC(=O)CCC(=O)O)C(=O)N1CCC[C@H]1C(=O)N[C@@H](CCC(=O)O)C(=O)N[C@@H](Cc1ccc(O)cc1)C(=O)N[C@@H](Cc1ccc(O)cc1)C(=O)N[C@@H](CC(C)C)C(=O)N[C@@H](CCC(N)=O)C(=O)O` [(C)] (Suc-GDFEPIPEYYLQ-OH), the Potency was 1.76 and the IC50 is 2.39 µM.

Turning to `CC[C@H](C)[C@H](NC(=O)[C@@H]1CCCN1C(=O)[C@H](CCC(=O)O)NC(=O)[C@H](Cc1ccccc1)NC(=O)CCC(=O)O)C(=O)N1CCC[C@H]1C(=O)N[C@@H](CCC(=O)O)C(=O)N[C@@H](Cc1ccc(O)cc1)C(=O)N[C@@H](Cc1ccc(O)cc1)C(=O)O` [(I)] (Suc-FEPIPEYY-OH), the Potency is listed as 0.83 and the IC50 is 17.3 µM.

With `CC[C@H](C)[C@H](NC(=O)[C@@H]1CCCN1C(=O)[C@H](CCC(=O)O)NC(=O)[C@H](Cc1ccccc1)NC(=O)CCC(=O)O)C(=O)N1CCC[C@H]1C(=O)N[C@@H](CCC(=O)O)C(=O)N[C@@H](Cc1ccc(O)cc1)C(=O)N[C@@H](Cc1ccc(O)cc1)C(N)=O` [(J)] (Suc-FEPIPEYY-NH2), the Potency is 0.07 and the IC50 is 85.1 µM.

For `CC[C@H](C)[C@H](NC(=O)[C@@H]1CCCN1C(=O)[C@H](CCC(=O)O)NC(=O)[C@H](Cc1ccccc1)NC(=O)CCC(=O)O)C(=O)N1CCC[C@H]1C(=O)N[C@@H](CCC(=O)O)C(=O)N[C@@H](Cc1ccc(O)cc1)C(=O)N[C@@H](Cc1ccc(O)cc1)C(=O)NCCC(=O)O` [(K)] (Suc-FEPIPEYY[βAla]-OH), the IC50 was 24.6 µM.

`CC[C@H](C)[C@H](NC(=O)[C@@H]1CCCN1C(=O)[C@H](CCC(=O)O)NC(=O)[C@H](Cc1ccccc1)NC(=O)CCC(=O)O)C(=O)N1CCC[C@H]1C(=O)N[C@@H](CCC(=O)O)C(=O)N[C@@H](Cc1ccc(O)cc1)C(=O)N[C@@H](Cc1ccc(O)cc1)C(=O)NCCCCC(=O)O` [(L)] (Suc-FEPIPEYY[Ava]-OH): the IC50 was 12.4 µM.

As for `CC[C@H](C)[C@H](NC(=O)[C@@H]1CCCN1C(=O)[C@H](CCC(=O)O)NC(=O)[C@H](Cc1ccccc1)NC(=O)CCC(=O)O)C(=O)N1CCC[C@H]1C(=O)N[C@@H](CCC(=O)O)C(=O)N[C@@H](Cc1ccc(O)cc1)C(=O)N[C@@H](Cc1ccc(O)cc1)C(=O)NCCCO` [(N)] (Suc-FEPIPEYY-{NH(3-hydroxypropyl)}), the IC50 is 84.9 µM.

Consider `CC[C@H](C)[C@H](NC(=O)[C@@H]1CCCN1C(=O)[C@H](CCC(=O)O)NC(=O)[C@H](Cc1ccccc1)NC(=O)CCC(=O)O)C(=O)N1CCC[C@H]1C(=O)N[C@@H](CCC(=O)O)C(=O)N[C@@H](Cc1ccc(O)cc1)C(=O)N[C@@H](Cc1ccc(O)cc1)C(=O)N[C@@H](CCCCCC(=O)OC)C(=O)OC` [(O)] (Suc-FEPIPEYY[Asu](OMe)-OMe), for which the IC50 was 26 µM.

Regarding `CC[C@H](C)[C@H](NC(=O)[C@@H]1CCCN1C(=O)[C@H](CCC(=O)O)NC(=O)[C@H](Cc1ccccc1)NC(=O)CCC(=O)O)C(=O)N1CCC[C@H]1C(=O)N[C@@H](CCC(=O)O)C(=O)N[C@@H](Cc1ccc(O)cc1)C(=O)N[C@@H](Cc1ccc(O)cc1)C(=O)N[C@H](CO)CC(C)C` [(P)] (Suc-FEPIPEYY[Leu(ol)]), the IC50 is 82.7 µM.

Turning to `CCNC(=O)[C@H](CC(C)C)NC(=O)[C@H](Cc1ccc(O)cc1)NC(=O)[C@H](Cc1ccc(O)cc1)NC(=O)[C@H](CCC(=O)O)NC(=O)[C@@H]1CCCN1C(=O)[C@@H](NC(=O)[C@@H]1CCCN1C(=O)[C@H](CCC(=O)O)NC(=O)[C@H](Cc1ccccc1)NC(=O)CCC(=O)O)[C@@H](C)CC` [(R)] (Suc-FEPIPEYYL-NHEt), the Potency was 0.18 and the IC50 is 27.8 µM.

In the case of `CC[C@H](C)[C@H](NC(=O)[C@@H]1CCCN1C(=O)[C@H](CCC(=O)O)NC(=O)[C@H](Cc1ccccc1)NC(=O)CCC(=O)O)C(=O)N1CCC[C@H]1C(=O)N[C@@H](CCC(=O)O)C(=O)N[C@@H](Cc1ccc(O)cc1)C(=O)N[C@@H](Cc1ccc(O)cc1)C(=O)N[C@@H](CC(C)C)C(=O)NCCS(N)(=O)=O` [(S)] (Suc-FEPIPEYYL-X1), the IC50 is 72.4 µM.

Take `CC[C@H](C)[C@H](NC(=O)[C@@H]1CCCN1C(=O)[C@H](CCC(=O)O)NC(=O)[C@H](Cc1ccccc1)NC(=O)CCC(=O)O)C(=O)N1CCC[C@H]1C(=O)N[C@@H](CCC(=O)O)C(=O)N[C@@H](Cc1ccc(O)cc1)C(=O)N[C@@H](Cc1ccc(O)cc1)C(=O)N[C@@H](CC(C)C)C(=O)N[C@H](CCCCCC(=O)OC)C(=O)OC` [(U)] (Suc-FEPIPEYYL[dAsu](OMe)-OMe): the IC50 is 32.3 µM.

For `CC[C@H](C)[C@H](NC(=O)[C@@H]1CCCN1C(=O)[C@H](CCC(=O)O)NC(=O)[C@H](Cc1ccccc1)NC(=O)CCC(=O)O)C(=O)N1CCC[C@H]1C(=O)N[C@@H](CCC(=O)O)C(=O)N[C@@H](Cc1ccc(O)cc1)C(=O)N[C@@H](Cc1ccc(O)cc1)C(=O)N[C@@H](CC(C)C)C(=O)N[C@@H](CCCCCC(=O)OC)C(=O)OC` [(V)] (Suc-FEPIPEYYL[Asu](OMe)-OMe), the IC50 is 20.7 µM.

With `CC[C@H](C)[C@H](NC(=O)[C@@H]1CCCN1C(=O)[C@H](CCC(=O)O)NC(=O)[C@H](Cc1ccccc1)NC(=O)CCC(=O)O)C(=O)N1CCC[C@H]1C(=O)N[C@@H](CCC(=O)O)C(=O)N[C@@H](Cc1ccc(O)cc1)C(=O)N[C@@H](Cc1ccc(O)cc1)C(=O)N[C@@H](CC(C)C)C(=O)N[C@H](CCCCCC(N)=O)C(N)=O` [(W)] (Suc-FEPIPEYYL[dAsu](NH2)-NH2), the IC50 was 24.3 µM.

`CC[C@H](C)[C@H](NC(=O)[C@@H]1CCCN1C(=O)[C@H](CCC(=O)O)NC(=O)[C@H](Cc1ccccc1)NC(=O)CCC(=O)O)C(=O)N1CCC[C@H]1C(=O)N[C@@H](CCC(=O)O)C(=O)N[C@@H](Cc1ccc(O)cc1)C(=O)N[C@@H](Cc1ccc(O)cc1)C(=O)N[C@@H](CC(C)C)C(=O)NP(=O)(O)O` [(Y)] (Suc-FEPIPEYY-X2): the IC50 is 114 µM.

In the case of `CC[C@H](C)[C@H](NC(=O)[C@H](CCC(=O)O)NC(=O)[C@H](CCC(=O)O)NC(=O)[C@H](Cc1ccccc1)NC(=O)[C@H](CC(=O)O)NC(=O)CN)C(=O)N1CCC[C@H]1C(=O)N[C@@H](CCC(=O)O)C(=O)N[C@@H](Cc1ccc(O)cc1)C(=O)N[C@@H](Cc1ccc(OS(=O)(=O)O)cc1)C(=O)N[C@@H](CC(C)C)C(=O)N[C@@H](CCC(N)=O)C(=O)O` [Sulfated form of (A), Gly--Asp--Phe--Glu--Glu--Ile--Pro--Glu--Tyr--Tyr(SO3 H)--Leu--Gln] (H-GDFEEIPEY[sY]LQ-OH), the IC50 was 2.15 µM.

With `CC[C@H](C)[C@H](NC(=O)[C@@H]1CCCN1C(=O)[C@H](CCC(=O)O)NC(=O)[C@H](Cc1ccccc1)NC(=O)[C@H](CC(=O)O)NC(=O)CNC(=O)CCC(=O)O)C(=O)N1CCC[C@H]1C(=O)N[C@@H](CCC(=O)O)C(=O)N[C@@H](Cc1ccc(OS(=O)(=O)O)cc1)C(=O)N[C@@H](Cc1ccc(OS(=O)(=O)O)cc1)C(=O)N[C@@H](CC(C)C)C(=O)N[C@@H](CCC(N)=O)C(N)=O` [Sulfated form of (D), Suc--Gly--Asp--Phe--Glu--Pro--Ile--Pro--Glu--Tyr(SO3 H)--Tyr(SO3 H)--Leu--Gln--NH2] (Suc-GDFEPIPE[sY][sY]LQ-NH2), the Potency is 57.07 and the IC50 is 0.0669 µM.
